Experimental data: patent US20230012560A1, “HEPATITIS B ANTIVIRAL AGENTS” (TAIGEN BIOTECHNOLOGY CO., LTD., priority 2019, published 2023)

These compounds were tested on HBV (HepAD38 cells) (assay: Real-Time PCR Assay (extracellular HBV DNA from HepAD38 culture supernatants)). Conditions: Hepatitis B virus, 120 h, compound treatment for 5 days without tetracycline, extracellular DNA in culture supernatant quantified by real-time PCR, read-out: EC50 (50% effective concentration).
Assay type: cell-based
Experimental: HepAD38 cells were seeded and cultured on 96-well plates. After incubation for 2 days, cells were fed with compound-containing media without tetracycline. After compound treatment for 5 days, culture supernatants were collected. Extracellular DNA was then extracted using LabTurbo DNA mini kit, and quantified by real-time PCR.
Real-time PCR was performed using an ABI QuantStudio 3 system in a 96-well optical plate format. The PCR mixture containing forward primer (5′-[…]-3′) (SEQ ID NO.1), reverse primer (5′-GGTGAGTGATTGGAGGTTG-3′) (SEQ ID NO.2) and Luna Universal qPCR Master Mix in a final volume of 24 μl was incubated at 95° C. for 10 min followed by 45 cycle of incubation at 95° C. for 10 s and 60° C. for 10 s. Regression analysis was performed using GraphPad Prism 5 to calculate the 50% effective concentration (EC50) values.

SMILES | EC50 [nM]
CC(C)NC(=O)C(=O)N1CC[C@@H](NS(=O)(=O)c2cn(C)c(C(=O)Nc3cc(F)c(F)c(F)c3)c2F)[C@@H](C)C1 [Compound 97] | < 100
CCNC(=O)C(=O)N1CCC(NS(=O)(=O)c2cn(C)c(C(=O)Nc3ccc(F)c(F)c3)c2F)C(C)C1 (centres unmarked) [Compound 83] | < 100
CNC(=O)C(=O)N1CCC2CC2(NS(=O)(=O)c2cn(C)c(C(=O)Nc3cc(F)c(F)c(F)c3)c2F)C1 (centres unmarked) [Compound 59] | < 100
Cn1cc(S(=O)(=O)N[C@@H]2CCN(S(=O)(=O)C3CCCC3)C2)c(F)c1C(=O)Nc1ccc(F)c(F)c1 [Compound 3] | 100 to 300
CCNC(=O)C(=O)N1CCC2(NS(=O)(=O)c3cn(C)c(C(=O)Nc4cc(F)c(F)c(F)c4)c3F)CC2C1 (centres unmarked) [Compound 85] | < 100
CC(=O)OCCNC(=O)C(=O)N1CC[C@@H](NS(=O)(=O)c2cn(C)c(C(=O)Nc3cc(F)c(F)c(F)c3)c2F)C1 [Compound 38] | < 100
CCS(=O)(=O)N1CC2CC1CN2S(=O)(=O)c1cn(C)c(C(=O)Nc2ccc(F)c(F)c2)c1F (centres unmarked) [Compound 67] | 300 to 1000
CCNC(=O)C(=O)N1CCC(NS(=O)(=O)c2cn(C)c(C(=O)Nc3cc(F)c(F)c(F)c3)c2F)C(C)(C)C1 (centres unmarked) [Compound 86] | < 100
CCNC(=O)C(=O)N1CCC(NS(=O)(=O)c2c(F)c(C(=O)Nc3cc(F)c(F)c(F)c3)n(C)c2Br)CC1 [Compound 81] | < 100
CCNC(=O)C(=O)N1CCC(NS(=O)(=O)c2cn(C)c(C(=O)Nc3cc(F)c(F)c(F)c3)c2Cl)CC1C (centres unmarked) [Compound 84] | < 100
CCNC(=O)C(=O)N1CCC(NS(=O)(=O)c2c(C)c(C(=O)Nc3cc(F)c(F)c(F)c3)n3c2CCC3)CC1 [Compound 79] | 300 to 1000
CCNC(=O)C(=O)N1CCC(NS(=O)(=O)c2cn(/C=C/F)c(C(=O)Nc3cc(F)cc(Cl)c3)c2F)CC1 [Compound 90] | < 100
CNC(=O)C(=O)N1CC[C@@H](NS(=O)(=O)c2c(F)c(C(=O)Nc3cc(F)c(F)c(F)c3)n(C)c2Cl)C1 [Compound 43] | < 100
Cn1cc(S(=O)(=O)NC2CCN(C(=O)C(=O)NC3COC3)CC2(F)F)c(F)c1C(=O)Nc1ccc(F)c(F)c1 (centres unmarked) [Compound 92] | < 100
CCNC(=O)C(=O)N1CCC(NS(=O)(=O)c2cn(C)c(C(=O)Nc3cc(F)c(F)c(F)c3)c2F)CC12CC2 (centres unmarked) [Compound 88] | < 100
CNS(=O)(=O)N1CCC(C)(NS(=O)(=O)c2cn(C)c(C(=O)Nc3ccc(F)c(F)c3)c2F)CC1 [Compound 25] | < 100
CCn1cc(S(=O)(=O)N[C@@H]2CCCN(S(=O)(=O)NC)C2)c(F)c1C(=O)Nc1ccc(F)c(F)c1 [Compound 22] | < 100
CNS(=O)(=O)N1CC[C@@H](NS(=O)(=O)c2cn(C)c(C(=O)Nc3ccc(F)c(F)c3)c2F)C1 [Compound 5] | < 100
Cn1cc(S(=O)(=O)NC2CCN(S(=O)(=O)C3(C)CC3)CC2)c(F)c1C(=O)Nc1ccc(F)c(F)c1 [Compound 24] | < 100
CN(C)S(=O)(=O)N1CC[C@@H](NS(=O)(=O)c2cn(C)c(C(=O)Nc3ccc(F)c(F)c3)c2F)C1 [Compound 9] | < 100
CNC(=O)C(=O)N1CC[C@@H](NS(=O)(=O)c2c(F)c(C(=O)Nc3ccc(F)c(F)c3)n(C)c2C)C1 [Compound 44] | < 100

SMILES | EC50 [nM]
CCNC(=O)C(=O)N1CCC(NS(=O)(=O)c2cn(C)c(C(=O)Nc3ccc(F)c(Cl)c3F)c2F)CC1 [Compound 74] | < 100
CNS(=O)(=O)N1CCC(C)C(NS(=O)(=O)c2cn(C)c(C(=O)Nc3ccc(F)c(F)c3)c2F)C1 (centres unmarked) [Compound 19] | < 100
CNS(=O)(=O)N1CCC(NS(=O)(=O)c2cn(C)c(C(=O)Nc3ccc(F)c(F)c3)c2F)C(F)(F)C1 (centres unmarked) [Compound 27] | < 100
CNC(=O)C(=O)N1CC[C@@H](NS(=O)(=O)c2cn(C3CC3)c(C(=O)Nc3ccc(F)c(F)c3)c2F)C1 [Compound 49] | < 100
CCCn1cc(S(=O)(=O)N[C@@H]2CCN(C(=O)C(=O)NC)C2)c(F)c1C(=O)Nc1ccc(F)c(F)c1 [Compound 51] | < 100
CNS(=O)(=O)N1CCC[C@@H](NS(=O)(=O)c2cn(C)c(C(=O)Nc3cccc(C(F)(F)F)c3)c2F)C1 [Compound 21] | < 100
COCCS(=O)(=O)N1CC[C@@H](NS(=O)(=O)c2cn(C)c(C(=O)Nc3ccc(F)c(F)c3)c2F)C1 [Compound 4] | < 100
CC[C@@H](C)NC(=O)C(=O)N1CCC(NS(=O)(=O)c2cn(C)c(C(=O)Nc3cc(F)c(F)c(F)c3)c2F)CC1 [Compound 75] | < 100
CCNC(=O)C(=O)N[C@@H]1CCN(S(=O)(=O)c2cn(C)c(C(=O)Nc3cc(F)c(F)c(F)c3)c2F)C1 [Compound 61] | 300 to 1000
CNS(=O)(=O)N1CC[C@@H](NS(=O)(=O)c2cn(C)c(C(=O)Nc3cc(F)c(F)c(F)c3)c2F)C1 [Compound 6] | < 100
Cn1cc(S(=O)(=O)NC2CCN(C(=O)C(=O)NC3(C)CC3)CC2(F)F)c(Cl)c1C(=O)Nc1cc(F)c(F)c(F)c1 (centres unmarked) [Compound 93] | < 100
CNS(=O)(=O)N1CC[C@@H](NS(=O)(=O)c2c(Cl)c(C(=O)Nc3cc(F)c(F)c(F)c3)n3c2CCC3)C1 [Compound 12] | < 100
Cn1cc(S(=O)(=O)N[C@@H]2CCN(S(=O)(=O)C3(C)CC3)C2)c(F)c1C(=O)Nc1ccc(F)c(F)c1 [Compound 2] | < 100
CNS(=O)(=O)NC1CCN(S(=O)(=O)c2cn(C)c(C(=O)Nc3cc(F)c(F)c(F)c3)c2F)CC1 [Compound 62] | 300 to 1000
CCCNC(=O)C(=O)N1CC[C@@H](NS(=O)(=O)c2cn(C)c(C(=O)Nc3cc(F)c(F)c(F)c3)c2F)C(F)(F)C1 [Compound 98] | < 100
CNC(=O)C(=O)N1CC[C@@H](NS(=O)(=O)c2cn(CC(F)F)c(C(=O)Nc3ccc(F)c(F)c3)c2F)C1 [Compound 48] | < 100
CCNC(=O)C(=O)N1CCC(NS(=O)(=O)c2cn(C)c(C(=O)Nc3cccc(C(F)(F)F)c3)c2F)CC1 [Compound 73] | < 100
CN(C)C(=O)C(=O)N1CC[C@@H](NS(=O)(=O)c2cn(C)c(C(=O)Nc3cc(F)c(F)c(F)c3)c2F)C1 [Compound 30] | < 100
O=C(NC1CC1)C(=O)N1CCC(NS(=O)(=O)c2c(F)c(C(=O)Nc3cc(F)c(F)c(F)c3)n3c2CCC3)CC1 [Compound 77] | < 100
CCNC(=O)C(=O)N1CCC(NS(=O)(=O)c2c(F)c(C(=O)Nc3ccc(F)c(F)c3)n(C)c2C)CC1 [Compound 80] | < 100
CCNC(=O)C(=O)N1CC[C@@H](NS(=O)(=O)c2cn(C)c(C(=O)Nc3ccc(F)c(F)c3)c2F)[C@@H](F)C1 [Compound 96] | < 100

SMILES | EC50 [nM]
CCNC(=O)C(=O)N1CCN(S(=O)(=O)c2cn(C)c(C(=O)Nc3cc(F)c(F)c(F)c3)c2F)CC1 [Compound 65] | 300 to 1000
CNS(=O)(=O)N1CC[C@@H](NS(=O)(=O)c2cn(C)c(C(=O)Nc3ccc(F)c(C(F)F)c3)c2F)C1 [Compound 16] | < 100
Cn1cc(S(=O)(=O)N[C@@H]2CCN(S(=O)(=O)/C=C/c3ccccc3)C2)c(F)c1C(=O)Nc1ccc(F)c(F)c1 [Compound 14] | 100 to 300
CCNC(=O)C(=O)NC1CCN(S(=O)(=O)c2cn(C)c(C(=O)Nc3cc(F)c(F)c(F)c3)c2F)CC1 [Compound 63] | 100 to 300
CCNC(=O)C(=O)N1CCC(NS(=O)(=O)c2cn(C)c(C(=O)Nc3cc(F)c(F)c(F)c3)c2F)CC1 [Compound 69] | < 100
CNC(=O)C(=O)N1CC2CC2(NS(=O)(=O)c2cn(C)c(C(=O)Nc3cc(F)c(F)c(F)c3)c2F)C1 (centres unmarked) [Compound 55] | < 100
CNS(=O)(=O)N[C@@H]1CCN(S(=O)(=O)c2cn(C)c(C(=O)Nc3cc(F)c(F)c(F)c3)c2F)C1 [Compound 60] | 300 to 1000
CCn1cc(S(=O)(=O)N[C@@H]2CCCN(C(=O)C(N)=O)C2)c(F)c1C(=O)Nc1ccc(F)c(F)c1 [Compound 58] | < 100
CCNC(=O)C(=O)N1CCC(NS(=O)(=O)c2c(Cl)c(C(=O)Nc3cc(F)c(F)c(F)c3)n3c2CCC3)CC1 [Compound 78] | < 100
CNC(=O)C(=O)N1CC[C@@H](NS(=O)(=O)c2c(Cl)c(C(=O)Nc3cc(F)c(F)c(F)c3)n3c2CCC3)C1 [Compound 47] | 100 to 300
CCNC(=O)C(=O)N1CC[C@@H](NS(=O)(=O)c2c(F)c(C(=O)Nc3cc(F)c(F)c(F)c3)n3c2CCC3)C1 [Compound 45] | < 100
C[C@@H](NC(=O)C(=O)N1CC[C@@H](NS(=O)(=O)c2cn(C)c(C(=O)Nc3cc(F)c(F)c(F)c3)c2F)C1)C(F)(F)F [Compound 39] | < 100
CNC(=O)C(=O)N1CC[C@@H](NS(=O)(=O)c2cn(CC3CC3)c(C(=O)Nc3ccc(F)c(F)c3)c2F)C1 [Compound 50] | 100 to 300
C#CCNC(=O)C(=O)N1CC[C@@H](NS(=O)(=O)c2cn(C)c(C(=O)Nc3ccc(F)c(F)c3)c2F)C1 [Compound 34] | < 100
CNC(=O)C(=O)N1CC[C@@H](NS(=O)(=O)c2cn(C)c(C(=O)Nc3ccc(F)c(Cl)c3)c2F)C1 [Compound 41] | < 100
C=CCn1cc(S(=O)(=O)N[C@@H]2CCN(C(=O)C(=O)NC)C2)c(F)c1C(=O)Nc1ccc(F)c(F)c1 [Compound 52] | < 100
CNC(=O)C(=O)N1CC[C@@H](NS(=O)(=O)c2cn(C3CCCC3)c(C(=O)Nc3ccc(F)c(F)c3)c2F)C1 [Compound 53] | 300 to 1000
CCNC(=O)C(=O)N1CCC(NS(=O)(=O)c2cn(C)c(C(=O)Nc3cccc(Cl)c3)c2F)CC1 [Compound 72] | < 100
CNS(=O)(=O)N1CC[C@@H](NS(=O)(=O)c2c(F)c(C(=O)Nc3ccc(F)c(F)c3)n3c2CCCC3)C1 [Compound 11] | 100 to 300
CNS(=O)(=O)N1CCCC(C)(NS(=O)(=O)c2cn(C)c(C(=O)Nc3ccc(F)c(F)c3)c2F)C1 (centres unmarked) [Compound 20] | < 100
